Test results as given in patent US11214803B2, “Modulators of YAP1 expression” (Ionis Pharmaceuticals, Inc., priority 2019, dated 2022).
Strand notation (5' to 3'): a small letter for the sugar, then the base; units joined by * are phosphorothioate-linked, units joined directly phosphodiester-linked; [ ] holds rarer units or linkages, { } end groups; capitals alone tell only the bases. k = constrained ethyl (cEt); [5mC] = 5-methylcytosine; d = 2'-deoxy (DNA)

Experiments:
Yap1 mRNA [1] = test: Antisense inhibition of human Yap1 in A-431 cells by cEt gapmers, single dose (Example 3, RTS36584); type: cell-based
Outline: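 Single-dose free-uptake screen of 3-10-3 cEt gapmers in A-431 cells at 2,000 nM over about 48 h. Values are % untreated control Yap1 mRNA.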

Yap1 mRNA [2] = test: Dose-dependent inhibition of human Yap1 in A-431 cells (Example 8, 10,000 cells per well, RTS4814); type: cell-based; settings: for % UTC (Yap1 mRNA) / IC50: A-431 cells; for Yap1 mRNA, % UTC: A-431 cells, 10,000 cells per well
Outline: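 Yap1 mRNA, normalized to RIBOGREEN total RNA and expressed as % untreated control, was read with RTS4814 about 48 h after free-uptake oligonucleotide treatment of A-431 cells at 10,000 cells/well. IC50 derived by linear regression of log/linear data.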

[3] = Table 34, Yap1 mRNA as percent of untreated control, 3-10-3 cEt gapmers targeting SEQ ID NO: 1 and 2, single dose
[4] = Table 27, Yap1 mRNA by 3-10-3 cEt gapmers targeting SEQ ID NO.: 1, and 2, percent of untreated control
[5] = 31.3 nM, free uptake, approximately 48 hours, RTS4814
[6] = 125.0 nM, free uptake, approximately 48 hours, RTS4814
[7] = 500.0 nM, free uptake, approximately 48 hours, RTS4814
[8] = 2000.00 nM, free uptake, approximately 48 hours, RTS4814
[9] = free uptake, approximately 48 hours, RTS4814, linear regression on log/linear plot
[10] = Table 26, Yap1 mRNA by 3-10-3 cEt gapmers targeting SEQ ID NO.: 1, and 2, percent of untreated control
[11] = Table 28, Yap1 mRNA as percent of untreated control, 3-10-3 cEt gapmers targeting SEQ ID NO.: 1, and 2
[12] = Table 35, Yap1 mRNA as percent of untreated control, 3-10-3 cEt gapmers targeting SEQ ID NO: 1 and 2, single dose
[13] = Table 29, Yap1 mRNA as percent of untreated control, 3-10-3 cEt gapmers targeting SEQ ID NO.: 1, and 2

Substance	YAP1 (% UTC) (Yap1 mRNA [1]; [3])	% UTC (Yap1 mRNA) (Yap1 mRNA [2]; 31.3 nM)	% UTC (Yap1 mRNA) (Yap1 mRNA [2]; 125.0 nM)	% UTC (Yap1 mRNA) (Yap1 mRNA [2]; 500.0 nM)	% UTC (Yap1 mRNA) (Yap1 mRNA [2]; 2000.00 nM)	IC50 (Yap1 mRNA [2]; Yap1 mRNA)	YAP1 (% UTC) (Yap1 mRNA [1]; [4])	Yap1 mRNA, % UTC (Yap1 mRNA [2]; [5])	Yap1 mRNA, % UTC (Yap1 mRNA [2]; [6])	Yap1 mRNA, % UTC (Yap1 mRNA [2]; [7])	Yap1 mRNA, % UTC (Yap1 mRNA [2]; [8])	IC50 (Yap1 mRNA [2]; [9])	YAP1 (% UTC) (Yap1 mRNA [1]; [10])	YAP1 (% UTC) (Yap1 mRNA [1]; [11])	YAP1 (% UTC) (Yap1 mRNA [1]; [12])	YAP1 (% UTC) (Yap1 mRNA [1]; [13])
1076084 (k[5mC]*kA*kT*d[5mC]*dA*dA*dT*dA*dG*dA*dG*dA*dG*kT*k[5mC]*kG; antisense) [compound 1076084]	7 % UTC	69 % UTC	34 % UTC	12 % UTC	8 % UTC	0.1 µM	–	–	–	–	–	–	–	–	–	–
1076461 (kG*kA*kT*dT*dA*dA*dT*dA*dT*dA*dG*d[5mC]*d[5mC]*k[5mC]*k[5mC]*kT; antisense) [compound 1076461]	–	–	–	–	–	–	3 % UTC	65 % UTC	24 % UTC	7 % UTC	3 % UTC	0.04 µM	–	–	–	–
1074508 (kG*kA*kG*dA*dG*dA*dG*d[5mC]*dA*dG*dA*dT*dA*kA*kT*k[5mC]; antisense) [compound 1074508]	–	–	–	–	–	–	–	62 % UTC	30 % UTC	14 % UTC	8 % UTC	0.05 µM	7 % UTC	–	–	–
1074638 (antisense kA*kG*kA*dT*dT*dT*dT*dG*dT*dA*dA*dT*dT*kG*kG*kG) [compound 1074638]	–	–	–	–	–	–	–	14 % UTC	4 % UTC	3 % UTC	3 % UTC	< 0.02 µM	–	2 % UTC	–	–
1074445 (kT*kG*kA*dT*dA*dG*d[5mC]*dA*d[5mC]*dT*dA*dG*dG*kA*kG*kG; antisense) [compound 1074445]	–	–	–	–	–	–	6 % UTC	57 % UTC	19 % UTC	8 % UTC	6 % UTC	< 0.02 µM	–	–	–	–
1076524 (kA*kA*kT*dT*dT*dA*dT*dA*dT*d[5mC]*dA*dG*dG*kT*k[5mC]*kA; antisense) [compound 1076524]	–	–	–	–	–	–	–	71 % UTC	30 % UTC	12 % UTC	7 % UTC	0.1 µM	6 % UTC	–	–	–
1074229 (antisense kG*kA*kA*dG*dA*d[5mC]*dT*dG*dT*d[5mC]*dG*dA*dA*kG*kA*kT) [compound 1074229]	–	58 % UTC	24 % UTC	9 % UTC	5 % UTC	< 0.02 µM	–	–	–	–	–	–	–	–	5 % UTC	–
1074549 (DNA kT*kA*kT*d[5mC]*dT*dA*d[5mC]*d[5mC]*dG*dT*dA*dT*dG*k[5mC]*k[5mC]*k[5mC]; antisense) [compound 1074549]	–	67 % UTC	31 % UTC	12 % UTC	7 % UTC	0.1 µM	–	–	–	–	–	–	–	–	6 % UTC	–
1076430 (k[5mC]*kG*kT*dT*dA*dT*dA*dA*dG*dA*dT*dG*dT*kG*k[5mC]*kT; antisense) [compound 1076430]	–	–	–	–	–	–	–	42 % UTC	14 % UTC	6 % UTC	4 % UTC	< 0.02 µM	–	4 % UTC	–	–
1075855 (antisense kG*kA*kT*dT*dT*dT*dT*dA*dG*dG*d[5mC]*dA*dG*kA*k[5mC]*kG) [compound 1075855]	–	–	–	–	–	–	–	65 % UTC	30 % UTC	12 % UTC	8 % UTC	0.1 µM	–	–	–	7 % UTC
1076525 (kG*kA*kA*dT*dT*dT*dA*dT*dA*dT*d[5mC]*dA*dG*kG*kT*k[5mC]; antisense) [compound 1076525]	–	–	–	–	–	–	3 % UTC	43 % UTC	14 % UTC	5 % UTC	2 % UTC	< 0.02 µM	–	–	–	–
1074580 (DNA kA*k[5mC]*k[5mC]*dA*d[5mC]*dT*dA*dT*dA*dA*dA*dG*d[5mC]*kT*kT*kA; further chemistry not given here) [compound 1074580]	5 % UTC	55 % UTC	18 % UTC	8 % UTC	5 % UTC	< 0.02 µM	–	–	–	–	–	–	–	–	–	–
1074485 (kT*kT*k[5mC]*dA*d[5mC]*dT*dA*dA*dT*dA*dT*dG*dG*kT*k[5mC]*kA; antisense) [compound 1074485]	–	47 % UTC	14 % UTC	5 % UTC	3 % UTC	< 0.02 µM	–	–	–	–	–	–	–	–	4 % UTC	–
1074613 (DNA k[5mC]*kA*kT*dA*dG*d[5mC]*dT*dT*dA*dT*dA*dT*dT*kG*kA*kA; antisense) [compound 1074613]	–	63 % UTC	23 % UTC	9 % UTC	6 % UTC	0.04 µM	–	–	–	–	–	–	–	–	7 % UTC	–
1076556 (kG*kT*kA*dT*dA*dG*dG*d[5mC]*dA*dG*dA*dA*dG*k[5mC]*kA*kA; antisense) [compound 1076556]	–	–	–	–	–	–	–	72 % UTC	46 % UTC	19 % UTC	11 % UTC	0.1 µM	9 % UTC	–	–	–
1074446 (kA*kT*kG*dA*dT*dA*dG*d[5mC]*dA*d[5mC]*dT*dA*dG*kG*kA*kG; antisense) [compound 1074446]	–	–	–	–	–	–	–	39 % UTC	11 % UTC	5 % UTC	3 % UTC	< 0.02 µM	–	3 % UTC	–	–
1074421 (kT*kG*kA*dT*dT*d[5mC]*dT*dT*dT*dA*dG*dA*dG*k[5mC]*k[5mC]*kA; antisense) [compound 1074421]	–	61 % UTC	29 % UTC	8 % UTC	5 % UTC	0.04 µM	–	–	–	–	–	–	–	–	3 % UTC	–
1076527 (kG*k[5mC]*kA*d[5mC]*dA*dA*d[5mC]*d[5mC]*dT*dT*dA*d[5mC]*dA*kT*kT*kT; antisense) [compound 1076527]	–	–	–	–	–	–	–	81 % UTC	41 % UTC	16 % UTC	8 % UTC	0.1 µM	–	–	–	6 % UTC
1075246 (kG*kA*kT*dA*dA*d[5mC]*dT*dA*dG*dT*dA*dA*d[5mC]*k[5mC]*kG*kT; antisense) [compound 1075246]	–	–	–	–	–	–	–	70 % UTC	34 % UTC	12 % UTC	6 % UTC	0.1 µM	–	6 % UTC	–	–
1074420 (kG*kA*kT*dT*d[5mC]*dT*dT*dT*dA*dG*dA*dG*d[5mC]*k[5mC]*kA*kA; antisense) [compound 1074420]	2 % UTC	–	–	–	–	–	–	38 % UTC	8 % UTC	3 % UTC	2 % UTC	< 0.02 µM	–	–	–	–
1074222 (antisense kA*kG*kG*dA*dA*dT*dG*dA*dG*d[5mC]*dT*d[5mC]*dG*kA*kA*k[5mC]) [compound 1074222]	–	–	–	–	–	–	–	59 % UTC	21 % UTC	8 % UTC	5 % UTC	< 0.02 µM	–	5 % UTC	–	–
1075052 (antisense kA*kT*kA*dT*dA*dT*dA*d[5mC]*dT*dT*dG*dA*dT*k[5mC]*k[5mC]*kA) [compound 1075052]	–	–	–	–	–	–	–	40 % UTC	10 % UTC	4 % UTC	4 % UTC	< 0.02 µM	3 % UTC	–	–	–
1074413 (kA*k[5mC]*kT*dG*dT*dG*dA*dA*dA*dG*dA*dG*dG*kT*k[5mC]*kA; antisense) [compound 1074413]	–	–	–	–	–	–	4 % UTC	50 % UTC	19 % UTC	6 % UTC	3 % UTC	< 0.02 µM	–	–	–	–
1074351 (antisense kA*kT*kG*d[5mC]*dT*dT*dA*dG*dT*d[5mC]*d[5mC]*dA*d[5mC]*kT*kG*kT) [compound 1074351]	–	–	–	–	–	–	–	69 % UTC	33 % UTC	13 % UTC	7 % UTC	0.1 µM	–	–	–	7 % UTC
1074414 (kA*kA*k[5mC]*dT*dG*dT*dG*dA*dA*dA*dG*dA*dG*kG*kT*k[5mC]; antisense) [compound 1074414]	–	–	–	–	–	–	–	64 % UTC	34 % UTC	14 % UTC	7 % UTC	0.1 µM	–	6 % UTC	–	–
